Reference: ChEMBL document CHEMBL1201862, “PubChem BioAssay data set” (2004)
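Each compound was tested at five concentrations against cells in 96-well plates for 48 hours. At the GI50, growth is halved.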 Calls of active or inactive are those of the source. Rule as the data show it: active = GI50 up to about 1.1 µM and inactive = higher.

Key:
Assay in all cases: growth of human tumour cells (NCI), 48 h
A549 = tested on: A549
ACHN = tested on: ACHN
HCC 2998 = tested on: HCC 2998
HCT-116 = tested on: HCT-116
HCT-15 = tested on: HCT-15
HT-29 = tested on: HT-29
MCF7 = tested on: MCF7
MDA-MB-435 = tested on: MDA-MB-435
MDA-N = tested on: MDA-N
NCI-H460 = tested on: NCI-H460
SK-MEL-5 = tested on: SK-MEL-5
SNB-75 = tested on: SNB-75
T47D = tested on: T47D
U-251 = tested on: U-251
UACC-257 = tested on: UACC-257
UO-31 = tested on: UO-31
HL-60 = tested on: HL-60
LOX IMVI = tested on: LOX IMVI
SF-539 = tested on: SF-539
SR = tested on: SR

Measured: GI50

Cc1cc(N(CCC#N)CCC#N)ccc1C(/N=N/c1ccc([N+](=O)[O-])cc1)=N\NC(=O)c1cc(Cl)ccc1C(=O)c1ccccc1
inactive: A549 15 µM | ACHN 12.2 µM | HCC 2998 13 µM | HCT-116 4.23 µM | HT-29 10.4 µM | MCF7 4.95 µM | MDA-MB-435 22.6 µM | MDA-N 18.9 µM | NCI-H460 6.1 µM | SK-MEL-5 12 µM | SNB-75 24.6 µM | T47D 5.18 µM | U-251 13.3 µM | UACC-257 32.2 µM | UO-31 10.1 µM
4.8 µM: HCT-15

O=S(=O)(c1ccccc1)c1ccc(-c2nc(-c3ccc4c(c3)Sc3ccccc3S4)cs2)cc1
inactive: A549 > 100 µM | ACHN 38.7 µM | HCC 2998 35.5 µM | HCT-116 73.3 µM | HL-60 > 100 µM | HT-29 > 100 µM | LOX IMVI > 100 µM | MCF7 61 µM | MDA-MB-435 > 100 µM | NCI-H460 > 100 µM | SF-539 49.5 µM | SNB-75 10.8 µM | SR 32.9 µM | T47D 61.8 µM | U-251 27.9 µM | UACC-257 > 100 µM | UO-31 > 100 µM
> 100 µM: HCT-15

CC(=O)ON(C(C)=O)C1C(COC(c2ccccc2)(c2ccccc2)c2ccccc2)OC2OC3(CCCC3)OC21 (configuration not stated)
4.6 µM: HCT-15
inactive: A549 4.59 µM | ACHN 7.66 µM | HCC 2998 > 50.4 µM | HCT-116 5.45 µM | HL-60 3.32 µM | HT-29 > 26.6 µM | LOX IMVI 8.18 µM | NCI-H460 6.75 µM | SF-539 > 100 µM | SK-MEL-5 6.3 µM | SNB-75 21.2 µM | SR 3.2 µM | U-251 6.47 µM | UACC-257 11.6 µM | UO-31 5.36 µM

CN(C)CN(C)c1nc(N(C)C)nc(N(C)C)n1
> 100 µM: HCT-15
inactive: A549 > 100 µM | ACHN > 100 µM | HCC 2998 > 100 µM | HCT-116 > 100 µM | HL-60 > 100 µM | HT-29 > 100 µM | LOX IMVI > 100 µM | NCI-H460 > 100 µM | SF-539 > 100 µM | SK-MEL-5 > 100 µM | SNB-75 > 100 µM | SR > 100 µM | U-251 > 100 µM | UACC-257 > 100 µM | UO-31 > 100 µM

N#Cc1ccc(Sc2ccccc2)cc1C#N
inactive: A549 > 100 µM | ACHN > 100 µM | HCC 2998 > 100 µM | HCT-116 20.7 µM | HL-60 > 100 µM | HT-29 > 100 µM | LOX IMVI 19.9 µM | NCI-H460 22.2 µM | SF-539 19.7 µM | SK-MEL-5 > 100 µM | SNB-75 21.7 µM | SR 18.7 µM | U-251 36.1 µM | UACC-257 > 100 µM | UO-31 > 100 µM
16 µM: HCT-15

O=C(NC1CCCCC1)N1CCNC1=S
inactive: A549 > 100 µM | ACHN > 100 µM | HCC 2998 > 100 µM | HCT-116 > 100 µM | HL-60 > 100 µM | HT-29 > 100 µM | LOX IMVI > 100 µM | MDA-MB-435 > 100 µM | MDA-N > 100 µM | NCI-H460 > 100 µM | SF-539 65.6 µM | SK-MEL-5 > 100 µM | SNB-75 > 100 µM | SR > 100 µM | T47D > 100 µM | U-251 1.91 µM | UACC-257 > 100 µM | UO-31 > 100 µM
> 100 µM: HCT-15

C/C(=N/N)c1sc(-c2nc(C)c(/C(C)=N\N)s2)nc1C
> 43 µM: HCT-15
inactive: A549 > 100 µM | ACHN > 100 µM | HCC 2998 > 100 µM | HCT-116 > 100 µM | HL-60 30.1 µM | HT-29 > 80.9 µM | LOX IMVI 39.5 µM | NCI-H460 59.3 µM | SF-539 > 100 µM | SK-MEL-5 > 100 µM | SNB-75 > 100 µM | SR 16.4 µM | U-251 > 100 µM | UACC-257 > 100 µM | UO-31 > 100 µM

CCC(C)C(NC(=O)c1c2ccccc2nc2ccccc12)C(=O)O (configuration not stated)
41 µM: HCT-15
inactive: A549 77.3 µM | ACHN > 100 µM | HCC 2998 > 100 µM | HCT-116 > 100 µM | HT-29 75.9 µM | LOX IMVI 74 µM | MCF7 98.9 µM | MDA-MB-435 79.1 µM | NCI-H460 > 100 µM | SF-539 60.7 µM | SK-MEL-5 60 µM | SNB-75 > 100 µM | SR > 100 µM | U-251 > 100 µM | UACC-257 > 100 µM | UO-31 25.1 µM

Cc1cc(C)c(/C=N/NS(=O)(=O)c2ccccc2)c(C)c1
> 100 µM: HCT-15
inactive: A549 > 100 µM | ACHN > 100 µM | HCC 2998 > 100 µM | HCT-116 > 100 µM | HL-60 91.6 µM | HT-29 > 100 µM | LOX IMVI > 100 µM | NCI-H460 59.4 µM | SF-539 66.8 µM | SK-MEL-5 > 100 µM | SNB-75 > 100 µM | SR 31.4 µM | U-251 > 100 µM | UACC-257 68.7 µM | UO-31 72.1 µM

Cc1n[n+](Cc2ccccc2)c2sc(N)nn12
inactive: A549 > 100 µM | ACHN > 100 µM | HCT-116 76.4 µM | HT-29 59 µM | LOX IMVI > 100 µM | MCF7 > 100 µM | MDA-MB-435 > 100 µM | MDA-N > 100 µM | NCI-H460 > 10 µM | SF-539 > 100 µM | SK-MEL-5 39.4 µM | SNB-75 > 100 µM | T47D > 100 µM | U-251 > 100 µM | UACC-257 > 100 µM | UO-31 > 100 µM
> 100 µM: HCT-15

Cc1cc2ccccc2c[n+]1CC(=O)CC([O-])(C(F)(F)F)C(F)(F)F
inactive: A549 > 100 µM | ACHN > 100 µM | HCC 2998 > 100 µM | HCT-116 > 100 µM | HL-60 > 100 µM | HT-29 56.6 µM | LOX IMVI > 100 µM | MDA-MB-435 > 100 µM | MDA-N > 100 µM | NCI-H460 > 100 µM | SF-539 > 100 µM | SK-MEL-5 50.7 µM | SNB-75 > 100 µM | SR > 100 µM | T47D > 100 µM | U-251 > 100 µM | UACC-257 > 100 µM | UO-31 > 100 µM
> 100 µM: HCT-15

O=C(Cn1c2ccc(Br)cc2c2nc3ccccc3nc21)N1CCOCC1
inactive: A549 98.4 µM | ACHN > 100 µM | HCC 2998 > 100 µM | HCT-116 50.2 µM | HT-29 > 100 µM | LOX IMVI 39.8 µM | MDA-MB-435 > 100 µM | MDA-N > 100 µM | NCI-H460 > 100 µM | SK-MEL-5 > 100 µM | SNB-75 22.1 µM | T47D 25.5 µM | U-251 > 100 µM | UACC-257 > 100 µM | UO-31 > 100 µM
> 100 µM: HCT-15
